The compounds below were run against T1, Replicase polyprotein 1ab (Severe acute respiratory syndrome coronavirus 2, UniProt P0DTD1) (assay: Inhibition of SARS-CoV-2 papain-like protease (PLpro) extracted from Escherichia coli BL21 (DE3) cells using RLRGG-AMC as substrate preincubated for 10 mins followed by substrate addition measured for 35 mins by FRET analysis).

In order of falling IC50:
1. Cc1ccc(NC2CCN(S(C)(=O)=O)CC2)cc1C(=O)N[C@H](C)c1cccc2ccccc12  1900 nM
2. Cc1ccc(NC(=O)[C@@H](CN)NC[C@@H]2CCCN2)cc1C(=O)N[C@H](C)c1cccc2ccccc12  1900 nM
3. Cc1ccc(NC(=O)[C@@H](N)CCN)cc1C(=O)N[C@H](C)c1cccc2ccccc12  1900 nM
4. Cc1ccc(NC(=O)CN2CCCCC2)cc1C(=O)N[C@H](C)c1cccc2ccccc12  1800 nM
5. Cc1ccc(NC(=O)CCN)cc1C(=O)N[C@H](C)c1cccc2ccccc12  1800 nM
6. Cc1ccc(NC(=O)[C@@]2(C)CCCN2)cc1C(=O)N[C@H](C)c1cccc2ccccc12  1800 nM
7. Cc1ccc(NC2CCN(C[C@H]3CCCN3)CC2)cc1C(=O)N[C@H](C)c1cccc2ccccc12  1800 nM
8. Cc1ccc(NCC(C)(C)N)cc1C(=O)N[C@H](C)c1cccc2ccccc12  1800 nM
9. Cc1ccc(NC(=O)C2CCN2)cc1C(=O)N[C@H](C)c1cccc2ccccc12 (mixture of isomers)  1800 nM
10. Cc1ccc(NC(=O)C2CN(C)CCN2C)cc1C(=O)N[C@H](C)c1cccc2ccccc12 (mixture of isomers)  1700 nM

The compounds below were run against T1, Replicase polyprotein 1ab (assay: Inhibition of SARS-CoV-2 3CL protease extracted from Escherichia coli BL21 (DE3) Rosetta cells using DabcylKNSTLQSGLRKE-Edan as substrate preincubated for 60 mins followed by substrate addition and measured after 20 mins by FRET assay).

In order of falling IC50:
1. CCC(C(=O)Nc1ccccc1C)n1cc(F)cc2nc(SCc3ccc(F)cc3)nc1-2 (racemic)  5090 nM
2. CCC(C(=O)Nc1cc(NC2CCOC2)ccc1C)n1cc(F)cc2nc(SCc3ccc(F)cc3)nc1-2 (racemic)  1860 nM
3. CCC(C(=O)Nc1cc(NC2CCOCC2)ccc1C)n1cc(F)cc2nc(SCc3ccc(F)cc3)nc1-2 (racemic)  1400 nM
4. CCC(C(=O)Nc1cc(NC2CCOCC2)ccc1C)n1cccc2nc(SCc3ccc(F)cc3)nc1-2 (racemic)  600 nM
5. CCC(C(=O)Nc1cc(NC2CCOC2)ccc1C)n1cc(Cl)cc2nc(SCc3ccc(F)cc3)nc1-2 (racemic)  160 nM

The compounds below were run against T1, Replicase polyprotein 1ab (assay: Binding affinity to SARS-CoV-2 papain-like protease extracted from Escherichia coli BL21 (DE3) cells assessed as inhibition constant by SPR analysis).

In order of rising Ki:
1. Cc1ccc(OCCN(C)C)cc1C(=O)N[C@H](C)c1cc(-c2cnn(C)c2)cc(-c2cnn(CCN3CCOCC3)c2)c1  20 nM
2. Cc1ccc(OCCN(C)C)cc1C(=O)N[C@H](C)c1cc(-c2cnn(C)c2)cc(-c2cncs2)c1  30 nM
3. Cc1ccc(OCCN(C)C)cc1C(=O)N[C@H](C)c1cc(-c2cnn(C)c2)cc(-c2cnn(C(F)F)c2)c1  30 nM
4. Cc1ccc(OCCN(C)C)cc1C(=O)N[C@H](C)c1cc(-c2cnn(CF)c2)cc(-c2ccn(C)n2)c1  30 nM
5. Cc1ccc(OCCN(C)C)cc1C(=O)N[C@H](C)c1cc(-c2cnn(C)c2)cc(-c2cnn(C3CC3)c2)c1  30 nM
6. Cc1ccc(OCCN(C)C)cc1C(=O)N[C@H](C)c1cc(-c2cnn(C)c2)cc(-c2cnn(C(C)C)c2)c1  40 nM
7. Cc1ccc(OCCN(C)C)cc1C(=O)N[C@H](C)c1cc(-c2cnn(C)c2)cc(-c2ccn(C)n2)c1  40 nM
8. Cc1ccc(OCCN(C)C)cc1C(=O)N[C@H](C)c1cc(-c2cnn(CCN3CCOCC3)c2)cc(-c2ccn(C)n2)c1  40 nM
9. Cc1ccc(OCCN(C)C)cc1C(=O)N[C@H](C)c1cc(-c2cccs2)cc(-c2ccc(CN)s2)c1  70 nM
10. COCn1cc(-c2cc(-c3cnn(C(F)F)c3)cc([C@@H](C)NC(=O)c3cc(OCCN(C)C)ccc3C)c2)cn1  80 nM

These compounds were tested against T1, Replicase polyprotein 1ab (assay: Inhibition of SARS-CoV-2 Main protease).

In order of rising IC50:
1. Cc1ccc(NC(=O)[C@H]2CCCCN2)cc1C(=O)N[C@H](C)c1cccc2ccccc12  300 nM
2. Cc1ccc(NC[C@@H]2CCCN2)cc1C(=O)N[C@H](C)c1cccc2ccccc12  800 nM
3. Cc1ccc(NC[C@H]2CCCN2)cc1C(=O)N[C@H](C)c1cccc2ccccc12  900 nM
4. Cc1ccc(NC[C@@H]2CCCCN2)cc1C(=O)N[C@H](C)c1cccc2ccccc12  900 nM
5. Cc1ccc(NC[C@@H]2CCCN2C)cc1C(=O)N[C@H](C)c1cccc2ccccc12  900 nM
6. Cc1ccc(NCC2CCN2)cc1C(=O)N[C@H](C)c1cccc2ccccc12 (mixture of isomers)  900 nM
7. Cc1ccc(NC(=O)[C@@H]2CCCCN2)cc1C(=O)N[C@H](C)c1cccc2ccccc12  1300 nM
8. Cc1ccc(NC[C@H]2CCCCN2)cc1C(=O)N[C@H](C)c1cccc2ccccc12  1400 nM
9. Cc1ccc(NC(=O)CN)cc1C(=O)N[C@H](C)c1cccc2ccccc12  3300 nM
10. Cc1ccc(NC(N)=O)cc1C(=O)N[C@H](C)c1cccc2ccccc12  3800 nM
11. Cc1ccc(NC(=O)C2(N)CC2)cc1C(=O)N[C@H](C)c1cccc2ccccc12  3800 nM

Each compound was assayed against T1, Replicase polyprotein 1ab (assay: Inhibition of SARS-CoV-2 papain-like protease (PLpro) by FRET analysis).

In order of falling IC50:
1. Cc1ccc(OCCN2CCOCC2)cc1C(=O)N[C@H](C)c1cc(-c2cccs2)cc(-c2cccs2)c1  360 nM
2. Cc1ccc(NCC2CNC2)cc1C(=O)N[C@H](C)c1cc(-c2cccs2)cc(-c2cccs2)c1  340 nM
3. Cc1ccc(NC2CCN(C)CC2)cc1C(=O)N[C@H](C)c1cc(-c2cccs2)cc(-c2cccs2)c1  180 nM
4. Cc1ccc(NC2CNC2)cc1C(=O)N[C@H](C)c1cc(-c2cccs2)cc(-c2cccs2)c1  171 nM
5. Cc1ccc(N)cc1C(=O)N[C@H](C)c1cc(-c2cccs2)cc(-c2cccs2)c1  170 nM
6. Cc1ccc(NC(=O)C2CCNCC2)cc1C(=O)N[C@H](C)c1cc(-c2cccs2)cc(-c2cccs2)c1  163 nM
7. Cc1ccc(NC(=O)CN)cc1C(=O)N[C@H](C)c1cc(-c2cccs2)cc(-c2cccs2)c1  140 nM
8. Cc1ccc(OCC[N+](C)(C)C)cc1C(=O)N[C@H](C)c1cc(-c2cccs2)cc(-c2cccs2)c1  130 nM
9. Cc1ccc(NCCN2CCCCC2)cc1C(=O)N[C@H](C)c1cc(-c2cccs2)cc(-c2cccs2)c1  110 nM
10. Cc1ccc(NC(=O)CN(C)C)cc1C(=O)N[C@H](C)c1cc(-c2cccs2)cc(-c2cccs2)c1  110 nM
11. Cc1ccc(OCCN2CCCC2)cc1C(=O)N[C@H](C)c1cc(-c2cccs2)cc(-c2cccs2)c1  70 nM
12. Cc1ccc(OCCN)cc1C(=O)N[C@H](C)c1cc(-c2cccs2)cc(-c2cccs2)c1  60 nM

What follows are compounds tested against T1, Replicase polyprotein 1ab (assay: Inhibition of SARS-CoV2 PLpro extracted from Escherichia coli using Z-RLRGG-AMC as substrate incubated for 30 mins by fluorescence based analysis).

In order of falling IC50:
1. Cc1ccc(NC(=O)[C@@H](N)CCCCN)cc1C(=O)N[C@H](C)c1cccc2ccccc12  1700 nM
2. Cc1ccc(Nc2ccncc2)cc1C(=O)N[C@H](C)c1cccc2ccccc12  1700 nM
3. Cc1ccc(NC(=O)C2CN(C)CCN2)cc1C(=O)N[C@H](C)c1cccc2ccccc12 (mixture of isomers)  1700 nM
4. Cc1ccc(NC(=O)[C@@H](N)CN)cc1C(=O)N[C@H](C)c1cccc2ccccc12  1600 nM
5. Cc1ccc(NC(=O)N2CCN(C)CC2)cc1C(=O)N[C@H](C)c1cccc2ccccc12  1600 nM
6. Cc1ccc(NC(=O)C2CN(C)C2)cc1C(=O)N[C@H](C)c1cccc2ccccc12  1550 nM
7. CNCCCNc1ccc(C)c(C(=O)N[C@H](C)c2cccc3ccccc23)c1  1500 nM
8. Cc1ccc(NC(=O)N2CCCN(C)CC2)cc1C(=O)N[C@H](C)c1cccc2ccccc12  1500 nM
9. Cc1ccc(NCC2CCNC2)cc1C(=O)N[C@H](C)c1cccc2ccccc12 (mixture of isomers)  1500 nM

These compounds were tested against T1, Replicase polyprotein 1ab (assay: Inhibition of SARS-CoV-2 papain-like protease).

In order of falling IC50:
1. Cc1ccccc1C(=O)NC(C)c1cccc2ccccc12 (racemic)  23500 nM
2. Cc1ccc(N2CCN(CCC(=O)O)CC2)cc1C(=O)NC1(c2cccc3ccccc23)CC1  110 nM
3. Cc1ccc(N2CCNC(C)C2)cc1C(=O)NC1(c2cccc3ccccc23)CC1 (centres undefined)  70 nM
4. Cc1ccc(N2CCN(CC(=O)O)CC2)cc1C(=O)NC1(c2cccc3ccccc23)CC1  40 nM
5. Cc1ccc(N2CCNCC2)cc1C(=O)NC1(c2cccc3ccccc23)CC1  30 nM
6. Cc1ccc(N2CC3CNCC3C2)cc1C(=O)NC1(c2cccc3ccccc23)CC1 (centres undefined)  30 nM
7. Cc1ccc(N2C[C@H]3C[C@@H](C2)N3)cc1C(=O)NC1(c2cccc3ccccc23)CC1  20 nM

Source: ChEMBL document CHEMBL6092147, “Design of inhibitors of SARS-CoV-2 papain-like protease deriving from GRL0617: Structure-activity relationships” (Bioorg Med Chem, 2024)
